Values after ≈ are worked out from the molar mass of the structure shown. Read-outs that look alike come from different tables or passages of the source.
Tests used:
[1] = test system: P. falciparum 3D7 clone of NF54; assay: [3H]hypoxanthine drug sensitivity assay, 3D7 clone; type: cell-based; settings: Plasmodium falciparum, read-out: IC50 3D7(µg/ml)
Description: (§1) The cultures are naturally asynchronous (65-75% ring stage) and are maintained in continuous log phase growth in RPMI-1640 medium (as developed by Moore et. al. at Roswell Park Memorial Institute, sold by Sigma Aldrich) supplemented with 5% washed human A+ erythrocytes, 25 mM Hepes, […] NaHCO3, and AlbuMAXII (lipid-rich bovine serum albumin) sold GIBCO, Grand Island, NY (CM). All cultures and assays were conducted at 37°C under an atmosphere of 5% CO2 and 5% O2, with a balance of N2.
(§2) The compounds were further diluted to the appropriate concentration using complete medium RPMI-1640 supplemented with 15nM cold hypoxanthine and AlbuMAXII.
Assays were performed in sterile 96-well microtitre plates; each plate contained 100 µl of parasite culture (0.5% parasitemia, 2.5% hematocrit). Each compound was tested in triplicate and parasite growth compared to control and blank (uninfected erythrocytes) wells. After 24h of incubation at 37°C, […] of [^3H]hypoxanthine was added to each well. Cultures were incubated for a further 24 h before they were harvested onto glass-fiber filter mats. The radioactivity was counted using a Wallac Microbeta® 1450 scintillation counter. […] Percentage inhibition was calculated from comparison to blank and control wells, and IC50 values calculated using Microsoft XLFit ® line fitting software (IDBS, UK).
The preliminary screen used the 3D7 strain. The compounds were tested at 6 concentrations (30, 10, 3, 1, 0.3, and 0.1 µg/ml).
(§3) Both the 3D7 clone and the K1 line were used. The compounds were diluted three-fold over at 12 different concentrations with an appropriate starting concentration based on the preliminary screen. The IC50 was determined by a sigmoidal dose response analysis using Microsoft XLFit™ (IDBS, UK).

P. falciparum K1 strain = assay: [3H]hypoxanthine drug sensitivity assay, K1 strain; type: cell-based; settings: Plasmodium falciparum
Description: as §1, §2
Assays were performed in sterile 96-well microtitre plates; each plate contained 100 µl of parasite culture (0.5% parasitemia, 2.5% hematocrit). Each compound was tested in triplicate and parasite growth compared to control and blank (uninfected erythrocytes) wells. After 24h of incubation at 37°C, […] of [^3H]hypoxanthine was added to each well. Cultures were incubated for a further 24 h before they were harvested onto glass-fiber filter mats. The radioactivity was counted using a Wallac Microbeta® 1450 scintillation counter. The results were recorded as counts per minute (CPM) per well at each compound concentration, control and blank wells. Percentage inhibition was calculated from comparison to blank and control wells, and IC50 values calculated using Microsoft XLFit ® line fitting software (IDBS, UK).
as §3

[2] = test system: Plasmodium berghei ANKA strain; assay: In vivo antiparasitic activity in infected mice (4-day dosing, parasitemia on day 5); settings: mice infected with P. berghei ANKA; for Activity at the dose 50 mg/kg (%): 50 mg/kg every day for 4 days
Description: Female mice (TFW or BALB/c, specific pathogen free), 18-20 g, or
Infection: Blood was taken from donor mice and diluted in RPMI-1640 medium to a parasitemia of 1% (the equivalent of 1x10^7 infected erythrocytes/ml) whilst kept on ice. An inoculum of 0.2 ml was administered to each mouse by the intravenous route. At 2-4 hours post-inoculation dosing commences.
Evaluation endpoint: On day 5 blood smears of all animals (2 slides/mouse) were prepared, fixed with methanol and stained with 10% Giemsa's stain. Parasitemia was determined microscopically by counting 1000 red blood cells under oil immersion at 1000x magnification.
Each of the tested compounds of formula (I) according to the invention was prepared as a stock solution of 5 mg/ml in 10% DMSO/PBS. Insoluble compounds of formula (I) were milled with stainless steel balls for up to 24 hours to reduce particle size. Fresh dilutions were prepared each day. The route of administration of tested compounds is intra peritoneal (i.p.).
Compounds were formulated at 10 mg/kg or at 50 mg/kg in a standard suspension vehicle (0.5% carboxymethylcellulose, 0.5% benzyl alcohol, 0.4% Tween® 80 in 0.9% NaCl) for both oral and i.p. administration.
Dosing was over a 4 day period as above, and evaluation was also as above.

[3] = P. falciparum 3D7, sensitive to all anti-malarials, 48 h, [3H]hypoxanthine uptake

| Structure (SMILES) | IC50 [1, 3] [µg/mL] | IC50 (P. falciparum K1 strain; K1, read-out: IC50 K1) [µg/mL] | also measured |
| --- | --- | --- | --- |
| COc1ccc(CN2CC[C@@H](N3CC(=O)N4[C@H](c5ccc6c(c5)OCO6)c5[nH]c6ccccc6c5C[C@@H]4C3=O)C2)cc1 [Compound 31, (6R,12aR)-6-Benzo[1,3]dioxol-5-yl-2-[(R)-1-(4-methoxy-benzyl)-pyrrolidin-3-yl]-2,3,6,7,12,12a-hexahydro-pyrazino[1',2':1,6]pyrido[3,4-b]indole-1,4-dione] | 0.23 (≈ 0.407 µM) | 0.13 (≈ 0.23 µM) |  |
| CN(C)c1ccc(CN2CC[C@@H](N3CC(=O)N4[C@H](c5ccc6c(c5)OCO6)c5[nH]c6ccccc6c5C[C@@H]4C3=O)C2)cc1 [Compound 26, (6R,12aR)-6-Benzo[1,3]dioxol-5-yl-2-[(R)-1-(4-dimethylamino-benzyl)-pyrrolidin-3-yl]-2,3,6,7,12,12a-hexahydro-pyrazino[1',2':1,6]pyrido[3,4-b]indole-1,4-dione] | 0.006 (≈ 0.0104 µM) | 0.14 (≈ 0.242 µM) | Activity at the dose 10 mg/kg (%) ([2]; 10 mg/kg every day for 4 days): 15%; Activity at the dose 50 mg/kg (%) [2]: 17% |
| O=C1[C@H]2Cc3c([nH]c4ccccc34)[C@@H](c3ccccc3)N2C(=O)CN1C1CCN(Cc2ccccc2)CC1 [Compound 90, (6R,12aR)-2-(1-Benzyl-piperidin-4-yl)-6-phenyl-2,3,6,7,12,12a-hexahydro-pyrazino[1',2':1,6]pyrido[3,4-b]indole-1,4-dione] | 0.48 (≈ 0.951 µM) | 0.3 (≈ 0.594 µM) |  |
| CN(CCN1CC(=O)N2[C@@H](c3ccc4c(c3)OCO4)c3[nH]c4ccccc4c3C[C@@H]2C1=O)Cc1ccccc1 [Compound 16, (6S,12aR)-6-Benzo[1,3]dioxol-5-yl-2-[2-(benzyl-methyl-amino)-ethyl]-2,3,6,7,12,12a-hexahydro-pyrazino[1',2':1,6]pyrido [3,4-b]indole-1,4-dione] |  |  | IC50 [1]: 0.3 µg/mL (≈ 0.574 µM); IC50 (P. falciparum K1 strain; K1, read-out: IC50 K1 (µg/ml)): 0.6 µg/mL (≈ 1.15 µM) |
| O=C1[C@H]2Cc3c([nH]c4ccccc34)[C@@H](c3ccc4c(c3)OCO4)N2C(=O)CN1[C@@H]1CCN(Cc2ccccn2)C1 [Compound 27, (6R,12aR)-6-Benzo[1,3]dioxol-5-yl-2-((R)-1-pyridin-2-ylmethyl-pyrrolidin-3-yl)-2,3,6,7,12,12a-hexahydro-pyrazino [1',2':1,6]pyrido[3,4-b]indole-1,4-dione] | 0.08 (≈ 0.149 µM) | 0.2 (≈ 0.373 µM) | Activity at the dose 50 mg/kg (%) [2]: 10% |
| O=C1[C@H]2Cc3c([nH]c4ccccc34)[C@@H](c3ccc4c(c3)OCO4)N2C(=O)CN1[C@@H]1CCN(Cc2ccc3c(c2)OCO3)C1 [Compound 33, (6R,12aR)-6-Benzo[1,3]dioxol-5-yl-2-((R)-1-benzo[1,3]dioxol-5-ylmethyl-pyrrolidin-3-yl)-2,3,6,7,12,12a-hexahydro-pyrazino[1',2':1,6]pyrido[3,4-b]indole-1,4-dione] | 0.17 (≈ 0.294 µM) | 0.16 (≈ 0.277 µM) |  |
| CCN(CC)CCCC(C)Nc1ccnc2cc(Cl)ccc12 (stereo not drawn) [Chloroquine, reference compound] |  |  | IC50 (P. falciparum K1 strain; K1): 0.13 to 0.21 µg/mL (≈ 0.406 to 0.656 µM) |
| CN(CCCN1CC(=O)N2[C@H](c3ccc4c(c3)OCO4)c3[nH]c4ccccc4c3C[C@@H]2C1=O)Cc1ccccc1 [Compound 17, (6R,12aR)-6-Benzo[1,3]dioxol-5-yl-2-[3-(benzyl-methyl-amino)-propyl]-2,3,6,7,12,12a-hexahydro-pyrazino[1',2':1,6]pyrido [3,4-b]indole-1,4-dione] | 0.98 (≈ 1.83 µM) | 0.19 (≈ 0.354 µM) |  |
| O=C1[C@H]2Cc3c([nH]c4ccccc34)[C@H](c3ccc4c(c3)OCO4)N2C(=O)CN1[C@@H]1CCN(Cc2ccccc2)C1 [Compound 14, (6S,12aR)-6-Benzo[1,3]dioxol-5-yl-2-((R)-1-benzyl-pyrrolidin-3-yl)-2,3,6,7,12,12a-hexahydro-pyrazino[1',2':1,6]pyrido [3,4-b]indole-1,4-dione] | 0.29 (≈ 0.542 µM) | 1.03 (≈ 1.93 µM) |  |
| CC(C)(C)OC(=O)NCCN1CC[C@@H](N2CC(=O)N3[C@H](c4ccc5c(c4)OCO5)c4[nH]c5ccccc5c4C[C@@H]3C2=O)C1 [Compound 35, {2-[(R)-3-((6R,12aR)-6-Benzo[1,3]dioxol-5-yl-1,4-dioxo-3,4,6,7,12,12a-hexahydro-1H-pyrazino[1',2':1,6]pyrido[3,4-b]indol-2-yl)-pyrrolidin-1-yl]-ethyl)-carbamic acid tert-butyl ester] | 0.07 (≈ 0.119 µM) | 0.015 (≈ 0.0255 µM) |  |
| CN(CCCN1CC(=O)N2[C@@H](c3ccc4c(c3)OCO4)c3[nH]c4ccccc4c3C[C@@H]2C1=O)Cc1ccccc1 [Compound 18, (6S,12aR)-6-Benzo[1,3]dioxol-5-yl-2-[3-(benzyl-methyl-amino)-propyl]-2,3,6,7,12,12a-hexahydro-pyrazino[1',2':1,6]pyrido [3,4-b]indole-1,4-dione] |  |  | IC50 [1]: 1.34 µg/mL (≈ 2.5 µM); IC50 (P. falciparum K1 strain; K1, read-out: IC50 K1 (µg/ml)): 0.28 µg/mL (≈ 0.522 µM) |
| CN(CCN1CC(=O)N2[C@H](c3ccc4c(c3)OCO4)c3[nH]c4ccccc4c3C[C@@H]2C1=O)Cc1ccccc1 [Compound 15, (6R,12aR)-6-Benzo[1,3]dioxol-5-yl-2-[2-(benzyl-methyl-amino)-ethyl]-2,3,6,7,12,12a-hexahydro-pyrazino[1',2':1,6]pyrido [3,4-b]indole-1,4-dione] | 0.6 (≈ 1.15 µM) | 0.4 (≈ 0.765 µM) |  |

Continued, in another order:

| IC50 [1, 3] [µg/mL] | IC50 (P. falciparum K1 strain; K1, read-out: IC50 K1) [µg/mL] | Structure (SMILES) | also measured |
| --- | --- | --- | --- |
| 0.13 (≈ 0.237 µM) | 0.15 (≈ 0.273 µM) | O=C1[C@H]2Cc3c([nH]c4ccccc34)[C@@H](c3ccc4nsnc4c3)N2C(=O)CN1[C@@H]1CCN(Cc2ccccc2)C1 [Compound 70c, (6R,12aR)-6-Benzo[1,2,5]thiadiazol-5-yl-2-((R)-1-benzyl-pyrrolidin-3-yl)-2,3,6,7,12,12a-hexahydro-pyrazino[1',2':1,6] pyrido[3,4-b]indole-1,4-dione] |  |
| 0.07 (≈ 0.133 µM) | 0.11 (≈ 0.209 µM) | O=C1[C@H]2Cc3c([nH]c4ccccc34)[C@@H](c3ccc(Cl)nc3)N2C(=O)CN1[C@@H]1CCN(Cc2ccccc2)C1 [Compound 84c, (6R,12aR)-2-((R)-1-Benzyl-pyrrolidin-3-yl)-6-(6-chloro-pyridin-3-yl)-2,3,6,7,12,12a-hexahydro-pyrazino[1',2':1,6] pyrido[3,4-b]indole-1,4-dione] | Activity at the dose 50 mg/kg (%) [2]: 9.1% |
| 0.7 (≈ 1.28 µM) | 0.5 (≈ 0.911 µM) | O=C1[C@H]2Cc3c([nH]c4ccccc34)[C@H](c3ccc4nsnc4c3)N2C(=O)CN1[C@@H]1CCN(Cc2ccccc2)C1 [Compound 70t, (6S,12aR)-6-Benzo[1,2,5]thiadiazol-5-yl-2-((R)-1-benzyl-pyrrolidin-3-yl)-2,3,6,7,12,12a-hexahydro-pyrazino[1',2':1,6] pyrido[3,4-b]indole-1,4-dione] |  |
| 4.17 (≈ 8.04 µM) | 2.47 (≈ 4.76 µM) | O=C1[C@H]2Cc3c([nH]c4ccccc34)[C@H](Cc3ccccc3)N2C(=O)CN1C1CCN(Cc2ccccc2)CC1 [Compound 89t, (6S,12aR)-6-Benzyl-2-(1-benzyl-piperidin-4-yl)-2,3,6,7,12,12a-hexahydro-pyrazino[1',2':1,6]pyrido[3,4-b]indole-1,4-dione] |  |
| 4.13 (≈ 7.9 µM) | 4.07 (≈ 7.79 µM) | Cn1ccnc1CN1CCC(N2CC(=O)N3[C@H](Cc4c([nH]c5ccccc45)[C@@H]3Cc3ccccc3)C2=O)CC1 [Compound 91t, (6S,12aR)-6-Benzyl-2-[1-(1-methyl-1H-imidazol-2-ylmethyl)-piperidin-4-yl]-2,3,6,7,12,12a-hexahydro-pyrazino-[1',2':1,6]pyrido[3,4-b]indole-1,4-dione] |  |
| 0.09 (≈ 0.171 µM) | 1.03 (≈ 1.96 µM) | O=C1[C@H]2Cc3c([nH]c4ccccc34)[C@H](c3ccc(Cl)nc3)N2C(=O)CN1[C@@H]1CCN(Cc2ccccc2)C1 [Compound 84t, (6S,12aR)-2-((R)-1-Benzyl-pyrrolidin-3-yl)-6-(6-chloro-pyridin-3-yl)-2,3,6,7,12,12a-hexahydro-pyrazino[1',2':1,6] pyrido[3,4-b]indole-1,4-dione] |  |

Reference: patent EP1914235A1, “CHIRAL TETRA-HYDRO BETA-CARBOLINE DERIVATIVES AND APPLICATIONS THEREOF AS ANTIPARASITIC COMPOUNDS” (Université de Lille 2 Droit et Santé, priority 2006, dated 2008)
